Consider two molecules from patent US20220143150A1 (ENZENE BIOSCIENCES LIMITED, priority 2019, published 2022).

Data set [1] is described as follows: Pharmacokinetic analysis in STZ-induced diabetes mellitus Wistar rats, single subcutaneous dose, serum ELISA. The format is in vivo. As to conditions: male, rat, sc, STZ diabetic Wistar rats, single dose 5 mg/kg subcutaneous. The procedure:
Streptozotocin (STZ), preferentially toxic to pancreatic beta cells, is commonly used to model […] diabetes mellitus (DM) in numerous species, including Wistar rat. 12-14 week-old male Wistar rats (300-380 g body weight) were selected for the study. Rats were randomly distributed to different groups based on ad-lib fed blood glucose and body weight. The diabetes mellitus (DM) was induced in Wister rats by single intraperitoneal injection of streptozotocin at 60 mg/kg STZ (n=6) in both control and test group for two weeks.
Basal glucose levels were recorded for all the animals before injecting STZ. All animals were again evaluated for the elevated blood levels after 15 days of STZ treatment. After the confirmation of high glucose levels animals were treated with single dose (5 mg/kg) of Liraglutide and D-Liraglutide by subcutaneous route.
Blood samples were collected at 0 (Pre-dose), 1, 2, 4, 8, 12, 24, 48, 72, 96, 120 and 144 h, post dose. At each time point, approximately, 0.3 mL of blood was withdrawn through retro orbital plexus under light isoflurane anesthesia in a labeled microfuge tube. All blood samples were centrifuged at 7000 rpm for 5 min at set temperature of 4° C. […]
The ELISA was performed for the quantitative measurement of the Liraglutide in the serum samples using Cloud-Clone Corp. (CEV769Ge 96 Tests) kit. […]
On the technique in general: An ELISA detects its analyte on a solid surface through an enzyme-linked reagent.

The conditions of data set [2]: once-weekly subcutaneous injection, dose of 0.5 or 1 mg; cited from earlier work.

As usually defined, the MRT is a mean duration of stay, worked out from the concentration-time curve. As to `CCCCCCCCCCCCCCCC(=O)N[C@@H](CCC(=O)NCCCC[C@H](NC(=O)[C@H](C)NC(=O)[C@H](C)NC(=O)[C@H](CCC(N)=O)NC(=O)CNC(=O)[C@H](CCC(=O)O)NC(=O)[C@H](CC(C)C)NC(=O)[C@H](Cc1ccc(O)cc1)NC(=O)[C@H](CO)NC(=O)[C@H](CO)NC(=O)[C@@H](NC(=O)[C@H](CC(=O)O)NC(=O)[C@H](CO)NC(=O)[C@@H](NC(=O)[C@H](Cc1ccccc1)NC(=O)[C@@H](NC(=O)CNC(=O)[C@H](CCC(=O)O)NC(=O)[C@H](C)NC(=O)[C@@H](N)Cc1cnc[nH]1)[C@@H](C)O)[C@@H](C)O)C(C)C)C(=O)N[C@@H](CCC(=O)O)C(=O)N[C@@H](Cc1ccccc1)C(=O)N[C@H](C(=O)N[C@@H](C)C(=O)N[C@@H](Cc1c[nH]c2ccccc12)C(=O)N[C@@H](CC(C)C)C(=O)N[C@H](C(=O)N[C@@H](CCCNC(=N)N)C(=O)NCC(=O)N[C@@H](CCCNC(=N)N)C(=O)NCC(=O)O)C(C)C)[C@@H](C)CC)C(=O)O` [Liraglutide], the mean residence time (MRT) in data set [1] is 34.8 h.
Broadly, the half-life is how long it takes for the measured level to halve. As for semaglutide, in data set [2], the half-life is 170 h and the “time to reach steady state” value is 4-5 weeks.
